The values that follow come from patent US20080139558A1, “QUINOLONES USEFUL AS INDUCIBLE NITRIC OXIDE SYNTHASE INHIBITORS” (KALYPSYS, INC., priority 2006, published 2008).

The structures appear in SMILES notation. pEC50: −log10 of the molar value. Some results are limits rather than exact numbers.

In general, pEC50 refers to −log10 of the EC50, conventionally taken in molar units. A low value points to a large EC50.

For the test, the target named is T1, human iNOS (Homo sapiens, UniProt P35228).
T1 construct: expressed in transfected cells; host or cells: HEK293
T1 sequence (P35228 whole entry): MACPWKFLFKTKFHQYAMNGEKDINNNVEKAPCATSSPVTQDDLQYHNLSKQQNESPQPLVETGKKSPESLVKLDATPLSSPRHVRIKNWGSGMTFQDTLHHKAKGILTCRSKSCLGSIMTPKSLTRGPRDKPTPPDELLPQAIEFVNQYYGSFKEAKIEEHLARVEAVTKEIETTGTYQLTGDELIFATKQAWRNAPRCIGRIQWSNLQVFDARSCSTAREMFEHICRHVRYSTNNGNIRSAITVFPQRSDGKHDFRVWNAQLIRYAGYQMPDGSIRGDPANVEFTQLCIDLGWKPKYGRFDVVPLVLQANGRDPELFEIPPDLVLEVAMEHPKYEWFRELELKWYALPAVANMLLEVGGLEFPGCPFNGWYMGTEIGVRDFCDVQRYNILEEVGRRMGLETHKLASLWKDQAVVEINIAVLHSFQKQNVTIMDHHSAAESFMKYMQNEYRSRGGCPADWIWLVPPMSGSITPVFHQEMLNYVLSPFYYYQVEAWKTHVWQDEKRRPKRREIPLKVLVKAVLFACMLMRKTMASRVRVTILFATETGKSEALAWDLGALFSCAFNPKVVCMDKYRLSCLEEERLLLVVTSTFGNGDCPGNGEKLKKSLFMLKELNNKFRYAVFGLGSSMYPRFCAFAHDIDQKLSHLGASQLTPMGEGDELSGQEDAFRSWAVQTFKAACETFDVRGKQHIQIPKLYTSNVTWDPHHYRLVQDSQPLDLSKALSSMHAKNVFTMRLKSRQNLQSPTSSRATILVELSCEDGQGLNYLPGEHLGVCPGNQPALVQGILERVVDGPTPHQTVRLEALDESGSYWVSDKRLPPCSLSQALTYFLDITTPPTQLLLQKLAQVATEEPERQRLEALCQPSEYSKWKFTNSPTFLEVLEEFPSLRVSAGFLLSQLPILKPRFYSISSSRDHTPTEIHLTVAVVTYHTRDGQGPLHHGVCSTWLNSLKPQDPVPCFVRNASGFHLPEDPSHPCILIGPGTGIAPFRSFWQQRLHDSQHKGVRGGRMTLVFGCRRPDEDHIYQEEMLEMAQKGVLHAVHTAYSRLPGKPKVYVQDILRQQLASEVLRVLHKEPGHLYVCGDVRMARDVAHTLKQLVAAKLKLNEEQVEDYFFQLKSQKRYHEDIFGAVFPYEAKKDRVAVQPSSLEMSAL
Nature of the test: DAN assay of nitric oxide production (hiNOS). Type of test: cell-based. The following applies: enzyme expressed in HEK293 cells transiently transfected with human iNOS. The source says:
The source of nitric oxide synthase (NOS) enzyme can be generated in several ways including induction of endogenous iNOS using cytokines and/or lipopolysaccharide (LPS) in various cell types known in the art. Alternatively, the gene encoding the enzyme can be cloned and the enzyme can be generated in cells via heterologous expression from a transient or stable expression plasmid with suitable features for protein expression as are known in the art. Enzymatic activity (nitric oxide production) is calcium independent for iNOS, while the constitutive NOS isoforms, nNOS and eNOS, become active with the addition of various cofactors added to cellular media or extract as are well known in the art. Enzymes specified in Table 1 were expressed in HEK293 cells transiently transfected with human iNOS.
A major metabolic pathway for nitric oxide is to nitrate and nitrite, which are stable metabolites within tissue culture, tissue, plasma, and urine (S Moncada, A Higgs, N Eng J Med 329, 2002 (1993)).
The level of nitrate or nitrite in the specimen can be quantified by any method known in the art which provides adequate sensitivity and reproducibility. A variety of protocols have also been described for detecting and quantifying nitrite and nitrate levels in biological fluids by ion chromatography (e.g., A Everett et al., J. Chromatogr. 706, 437 (1995); J M Monaghan et al., J. Chromatogr. 770, 143 (1997)), high-performance liquid chromatography (e.g., M Kelm et al., Cardiovasc. Res. 41, 765 (1999)), and capillary electrophoresis (MA Friedberg et al., J. Chromatogr. 781, 491 (1997)). For example, 2,3-diaminonaphthalene reacts with the nitrosonium cation that forms spontaneously from NO to form the fluorescent product 1H-naphthotriazole. Using 2,3-diaminonaphthalene (“DAN”), researchers have developed a rapid, quantitative fluorometric assay that can detect from 10 nM to 10 μM nitrite and is compatible with a multi-well microplate format. […] DAN reacts with nitrite ion and gives fluorescent naphthotriazole (MC Carré et al., Analusis 27, 835-838 (1999)). Table 1 provides the test results of various compounds of the subject invention using the DAN assay.
A specimen can be processed prior to determination of nitrate or nitrite as required by the quantification method, or in order to improve the results, or for the convenience of the investigator. For example, processing can involve centrifuging, filtering, or homogenizing the sample. If the sample is whole blood, the blood can be centrifuged to remove cells and the nitrate or nitrite assay performed on the plasma or serum fraction. If the sample is tissue, the tissue can be dispersed or homogenized by any method known in the art prior to determination of nitrate or nitrite. It may be preferable to remove cells and other debris by centrifugation or another method and to determine the nitrate or nitrite level using only the fluid portion of the sample, or the extracellular fluid fraction of the sample. The sample can also be preserved for later determination, for example by freezing of urine or plasma samples. When appropriate, additives may be introduced into the specimen to preserve or improve its characteristics for use in the nitrate or nitrite assay.
The “level” of nitrate, nitrite, or other NO-related product usually refers to the concentration (in moles per liter, micromoles per liter, or other suitable units) of nitrate or nitrite in the specimen, or in the fluid portion of the specimen. However, other units of measure can also be used to express the level of nitrate or nitrite. For example, an absolute amount (in micrograms, milligrams, nanomoles, moles, or other suitable units) can be used, particularly if the amount refers back to a constant amount (e.g., grams, kilograms, milliliters, liters, or other suitable units) of the specimens under consideration. A number of commercially available kits can be used. […]
In the case of `Cc1ncsc1C(=O)N(Cc1cc(=O)[nH]c2c(F)cccc12)c1cccc(C#N)c1` [Example 95, N-(3-Cyanophenyl)-N-((8-fluoro-2-oxo-1,2-dihydroquinolin-4-yl)methyl)-4-methylthiazole-5-carboxamide], the pEC50 was no less than 5.30.
Under `Cc1nnsc1C(=O)N(Cc1cc(=O)[nH]c2c(F)c(F)ccc12)c1cccc(Cl)c1` [Example 110, N-(3-Chlorophenyl)-N-((7,8-difluoro-2-oxo-1,2-dihydroquinolin-4-yl)methyl)-4-methyl-1,2,3-thiadiazole-5-carboxamide] stands no less than 5.30; under `O=c1cc(CN(c2cccc(Cl)c2)c2nccc3ccccc23)c2cccc(F)c2[nH]1` [Example 78, 4-(((3-Chlorophenyl)(isoquinolin-1-yl)amino)methyl)-8-fluoroquinolin-2(1H)-one], less than 5.30; under `O=c1cc(Cn2c(C3CCCC3)nc3ccccc32)c2ccc(F)c(F)c2[nH]1` [Example 209, 4-((2-Cyclopentyl-1H-benzo[d]imidazol-1-yl)methyl)-7,8-difluoroquinolin-2(1H)-one], no less than 5.30.
Under `Cc1ccc2[nH]c(=O)cc(CN(C(=O)c3ccco3)c3ccccc3)c2c1` [Example 21, N-((6-Methyl-2-oxo-1,2-dihydroquinolin-4-yl)methyl)-N-phenylfuran-2-carboxamide] stands no less than 5.30.
As for `Cc1ncsc1C(=O)N(Cc1cc(=O)[nH]c2c(F)cccc12)c1cccc(Cl)c1` [Example 43, N-(3-Chlorophenyl)-N-((8-fluoro-2-oxo-1,2-dihydroquinolin-4-yl)methyl)-4-methylthiazole-5-carboxamide], the pEC50 is less than 5.30.
Under `CC(C)c1nc2ccn(Cc3cc(=O)[nH]c4c(F)c(F)ccc34)cc-2n1` [Example 230, 7,8-Difluoro-4-((2-isopropyl-5H-imidazo[4,5-c]pyridin-5-yl)methyl)quinolin-2(1H)-one] stands less than 5.30.
The same measure for `O=c1cc(Cn2c(Cl)nc3ccccc32)c2ccc(F)c(F)c2[nH]1` [Example 203, 4-((2-Chloro-1H-benzo[d]imidazol-1-yl)methyl)-7,8-difluoroquinolin-2(1H)-one]: less than 5.30; for `N#Cc1ccc(C(=O)N(Cc2cc(=O)[nH]c3c(F)cccc23)c2cccc(Cl)c2)cc1` [Example 66, N-(3-Chlorophenyl)-4-cyano-N-((8-fluoro-2-oxo-1,2-dihydroquinolin-4-yl)methyl)benzamide]: less than 5.30; for `O=C(c1cc(=O)[nH]c2c(F)cccc12)N(Cc1cscn1)c1cccc(Cl)c1` [Example 105, N-(3-Chlorophenyl)-8-fluoro-2-oxo-N-(thiazol-4-ylmethyl)-1,2-dihydroquinoline-4-carboxamide]: less than 5.30.
The same measure for `O=c1cc(Cn2c(C3CCCCC3)nc3ccccc32)c2ccc(F)c(F)c2[nH]1` [Example 204, 4-((2-Cyclohexyl-1H-benzo[d]imidazol-1-yl)methyl)-7,8-difluoroquinolin-2(1H)-one]: less than 5.30; for `Cc1ncsc1C(=O)N(Cc1cc(=O)[nH]c2c(F)c(F)ccc12)c1ccc(F)cc1` [Example 183, N-(4-Fluorolphenyl)-N-((7,8-fluoro-2-oxo-1,2-dihydroquinolin-4-yl)methyl)-4-methylthiazole-5-carboxamide]: no less than 5.30; for `CN(C)c1ccccc1-c1nc2ccccc2n1Cc1cc(=O)[nH]c2c(F)c(F)ccc12` [Example 242, 4-((2-(2-(Dimethylamino)phenyl)-1H-benzo[d]imidazol-1-yl)methyl)-7,8-difluoroquinolin-2(1H)-one]: less than 5.30.
With `Cc1ccccc1C(=O)N(Cc1cc(=O)[nH]c2c(F)cccc12)c1cccc(Cl)c1` [Example 57, N-(3-Chlorophenyl)-N-((8-fluoro-2-oxo-1,2-dihydroquinolin-4-yl)methyl)-2-methylbenzamide], the pEC50 is less than 5.30.
`Cc1ncsc1C(=O)N(Cc1cc(=O)[nH]c2cc(F)ccc12)c1cccc(Cl)c1` [Example 51, N-(3-Chlorophenyl)-N-((7-fluoro-2-oxo-1,2-dihydroquinolin-4-yl)methyl)-4-methylthiazole-5-carboxamide] had a negative-log EC50 (pEC50) of less than 5.30.
Compound `O=c1cc(CN(c2cccc(Cl)c2)S(=O)(=O)c2cccnc2)c2ccc(F)c(F)c2[nH]1` [Example 261, N-(3-chlorophenyl)-N-((7,8-difluoro-2-oxo-1,2-dihydroquinolin-4-yl)methyl)pyridine-3-sulfonamide] had a pEC50 of no less than 5.30.
The compound `Cc1ncsc1C(=O)N(c1cccc(Cl)c1)C(C)c1cc(=O)[nH]c2c(F)cccc12` (racemic) [Example 113, N-(3-Chlorophenyl)-N-(1-(8-fluoro-2-oxo-1,2-dihydroquinolin-4-yl)ethyl)-4-methylthiazole-5-carboxamide] gave a pEC50 of no less than 5.30.
Turning to `Cc1cccnc1C(=O)N(Cc1cc(=O)[nH]c2ccccc12)c1ccccc1` [Example 38, 3-Methyl-N-((2-oxo-1,2-dihydroquinolin-4-yl)methyl)-N-phenylpicolinamide], the negative-log EC50 (pEC50) was less than 5.30.
Under `CCC(=O)N(Cc1cc(=O)[nH]c2ccccc12)c1ccccc1` [Example 4, N-((2-Oxo-1,2-dihydroquinolin-4-yl)methyl)-N-phenylpropionamide] stands less than 5.30.
Compound `COC(=O)C(=O)N(Cc1cc(=O)[nH]c2c(F)cccc12)c1cccc(Cl)c1` [Example 63, Methyl 2-((3-chlorophenyl)((8-fluoro-2-oxo-1,2-dihydroquinolin-4-yl)methyl)amino)-2-oxoacetate] had a pEC50 of less than 5.30.
In turn, `O=c1cc(Cn2c(-c3ccccc3C(F)(F)F)nc3ccccc32)c2ccc(F)c(F)c2[nH]1` [Example 245, 7,8-Difluoro-4-((2-(2-(trifluoromethyl)phenyl)-1H-benzo[d]imidazol-1-yl)methyl)quinolin-2(1H)-one] had a pEC50 of no less than 5.30.
As for `Cc1ncsc1S(=O)(=O)N(Cc1cc(=O)[nH]c2c(F)cccc12)c1cccc(Cl)c1` [Example 42, N-(3-Chlorophenyl)-N-((8-fluoro-2-oxo-1,2-dihydroquinolin-4-yl)methyl)-4-methylthiazole-5-sulfonamide], the pEC50 is no less than 5.30.
The same measure for `Cn1cnc(C(=O)N(Cc2cc(=O)[nH]c3c(F)cccc23)c2cccc(Cl)c2)c1` [Example 46, N-(3-Chlorophenyl)-N-((8-fluoro-2-oxo-1,2-dihydroquinolin-4-yl)methyl)-1-methyl-1H-imidazole-4-carboxamide]: less than 5.30.
Regarding `Cc1ncsc1-c1nc2ccccc2n1Cc1cc(=O)[nH]c2ccccc12` [Example 124, 4-((2-(4-Methylthiazol-5-yl)-1H-benzo[d]imidazol-1-yl)methyl)quinolin-2(1H)-one], the pEC50 was no less than 5.30.
Turning to `Cc1ncsc1C(=O)N(Cc1c(F)c(=O)[nH]c2c(F)cccc12)c1cccc(Cl)c1` [Example 108, N-(3-Chlorophenyl)-N-((3,8-difluoro-2-oxo-1,2-dihydroquinolin-4-yl)methyl)-4-methylthiazole-5-carboxamide], the pEC50 is no less than 5.30.
Under `Cc1cccc(C)c1-c1nc2ccccc2n1Cc1cc(=O)[nH]c2c(F)c(F)ccc12` [Example 246, 4-((2-(2,6-Dimethylphenyl)-1H-benzo[d]imidazol-1-yl)methyl)-7,8-difluoroquinolin-2(1H)-one] stands less than 5.30; under `Cc1ncsc1C(=O)N(Cc1cc(=O)[nH]c2ccccc12)c1ccc(F)c(F)c1` [Example 41], less than 5.30.
